# From ChEMBL document CHEMBL4477221, “Discovery and Structure-Based Optimization of 2-Ureidothiophene-3-carboxylic Acids as Dual Bacterial RNA Polymerase and Viral Reverse Transcriptase Inhibitors” (J Med Chem, 2016)
# The source made the active and inactive calls. The rule behind the calls is not given here.
# System: Human immunodeficiency virus 1
# Assay: Antiviral activity against HIV1 pseudoparticle expressing Gag, Gag-pol, RRE, and vesicular stomatitis virus-G protein assessed as inhibition of pseudoparticles entry into human HeLa cells pretreated for 30 mins followed by pseudoparticle addition measured 24 hrs post infection by luciferase reporter gene assay
# Assay type: functional, organism-based
# Settings: not given
row,Structure (SMILES),IC50
1,O=C(Nc1ccc(F)cc1)Nc1sc(-c2ccc(Cl)c(Cl)c2)cc1C(=O)O,Not Active

# Same assay, conditions: Human immunodeficiency virus 1, HeLa; read-out: IC50
row,Structure (SMILES),IC50
1,COc1ccc(NC(=O)Nc2sc(-c3ccc(Cl)c(Cl)c3)cc2C(=O)O)cc1,35 µM
2,CCN(Cc1ccccc1)C(=O)Nc1sc(-c2ccc(Cl)c(Cl)c2)cc1C(=O)O,27 µM
3,COC(=O)Nc1ccc(NC(=O)Nc2sc(-c3ccc(Cl)c(Cl)c3)cc2C(=O)O)cc1,30 µM
4,O=C(Nc1ccccc1)Nc1sc(-c2ccc(Cl)c(Cl)c2)cc1C(=O)O,20 µM
5,CS(=O)(=O)Nc1ccc(NC(=O)Nc2sc(-c3ccc(Cl)c(Cl)c3)cc2C(=O)O)cc1,30 µM

# System: not listed separately
# Assay: Inhibition of Escherichia coli RNA polymerase
# Settings: not given
row,Structure (SMILES),IC50
1,COc1ccc(NC(=O)Nc2sc(-c3ccc(Cl)c(Cl)c3)cc2C(=O)O)cc1,22 µM
2,CCN(Cc1ccccc1)C(=O)Nc1sc(-c2ccc(Cl)c(Cl)c2)cc1C(=O)O,21 µM
3,COC(=O)Nc1ccc(NC(=O)Nc2sc(-c3ccc(Cl)c(Cl)c3)cc2C(=O)O)cc1,19 µM
4,O=C(Nc1ccccc1)Nc1sc(-c2ccc(Cl)c(Cl)c2)cc1C(=O)O,20 µM
5,CS(=O)(=O)Nc1ccc(NC(=O)Nc2sc(-c3ccc(Cl)c(Cl)c3)cc2C(=O)O)cc1,26 µM
6,O=C(Nc1ccc(F)cc1)Nc1sc(-c2ccc(Cl)c(Cl)c2)cc1C(=O)O,14 µM

# System: not listed separately
# Assay: Ratio of IC50 for NNRTI resistant HIV1 harboring reverse transcriptase K103N/V179F/Y181C mutant infected in human TZM-bl cells to IC50 for wild type HIV1 NL4-3 infected in human TZM-bl cells
# Assay type: functional
# Settings: not given
row,Structure (SMILES),Ratio IC50
1,O=C(Nc1ccccc1)Nc1sc(-c2ccc(Cl)c(Cl)c2)cc1C(=O)O,>4
2,CS(=O)(=O)Nc1ccc(NC(=O)Nc2sc(-c3ccc(Cl)c(Cl)c3)cc2C(=O)O)cc1,>4

# System: not listed separately
# Assay: Cytotoxicity against human HeLa cells infected with HIV1 pseudoparticle expressing Gag, Gag-pol, RRE, and vesicular stomatitis virus-G protein assessed as inhibition of cell viability at 25 uM preincubated with cells for 30 mins followed by pseudoparticle addition measured 24 hrs post infection by MTT assay relative to control
# Assay type: cell-based
# Settings: read-out: INH
row,Structure (SMILES),"cytotoxicity at 24 h, 25 µM"
1,COc1ccc(NC(=O)Nc2sc(-c3ccc(Cl)c(Cl)c3)cc2C(=O)O)cc1,12%
2,CCN(Cc1ccccc1)C(=O)Nc1sc(-c2ccc(Cl)c(Cl)c2)cc1C(=O)O,23%
3,COC(=O)Nc1ccc(NC(=O)Nc2sc(-c3ccc(Cl)c(Cl)c3)cc2C(=O)O)cc1,6%
4,O=C(Nc1ccccc1)Nc1sc(-c2ccc(Cl)c(Cl)c2)cc1C(=O)O,0%
5,CS(=O)(=O)Nc1ccc(NC(=O)Nc2sc(-c3ccc(Cl)c(Cl)c3)cc2C(=O)O)cc1,0%
6,O=C(Nc1ccc(F)cc1)Nc1sc(-c2ccc(Cl)c(Cl)c2)cc1C(=O)O,0%

# Biological target: Human immunodeficiency virus type 1 reverse transcriptase (Human immunodeficiency virus 1) (UniProt Q72547)
# Assay: Effect on binding orientation of HIV1 Alexa 488-labeled reverse transcriptase to TAMRA-labeled primer/template duplex by FRET assay
# Settings: not given
row,Structure (SMILES),Activity
1,COc1ccc(NC(=O)Nc2sc(-c3ccc(Cl)c(Cl)c3)cc2C(=O)O)cc1,inactive
2,CCN(Cc1ccccc1)C(=O)Nc1sc(-c2ccc(Cl)c(Cl)c2)cc1C(=O)O,inactive
3,COC(=O)Nc1ccc(NC(=O)Nc2sc(-c3ccc(Cl)c(Cl)c3)cc2C(=O)O)cc1,inactive
4,O=C(Nc1ccccc1)Nc1sc(-c2ccc(Cl)c(Cl)c2)cc1C(=O)O,inactive
5,CS(=O)(=O)Nc1ccc(NC(=O)Nc2sc(-c3ccc(Cl)c(Cl)c3)cc2C(=O)O)cc1,inactive
6,O=C(Nc1ccc(F)cc1)Nc1sc(-c2ccc(Cl)c(Cl)c2)cc1C(=O)O,inactive

# System: Human immunodeficiency virus 1
# Assay: Antiviral activity against NNRTI resistant HIV1 harboring reverse transcriptase V106I/Y181C/G190A/H221Y mutant assessed as inhibition of viral infection in human TZM-bl cells after 48 hrs by luciferase reporter gene assay
# Assay type: functional, organism-based
# Settings: Human immunodeficiency virus 1, TZM-bl
row,Structure (SMILES),IC50
1,O=C(Nc1ccccc1)Nc1sc(-c2ccc(Cl)c(Cl)c2)cc1C(=O)O,1 µM
2,CS(=O)(=O)Nc1ccc(NC(=O)Nc2sc(-c3ccc(Cl)c(Cl)c3)cc2C(=O)O)cc1,1.5 µM

# System: not listed separately
# Assay: Ratio of IC50 for NNRTI resistant HIV1 harboring reverse transcriptase A98G/K101E/Y181C/G190A mutant infected in human TZM-bl cells to IC50 for wild type HIV1 NL4-3 infected in human TZM-bl cells
# Assay type: functional
# Settings: not given
row,Structure (SMILES),Ratio IC50
1,O=C(Nc1ccccc1)Nc1sc(-c2ccc(Cl)c(Cl)c2)cc1C(=O)O,3
2,CS(=O)(=O)Nc1ccc(NC(=O)Nc2sc(-c3ccc(Cl)c(Cl)c3)cc2C(=O)O)cc1,3.5

# System: Staphylococcus aureus
# Assay: Antibacterial activity against Staphylococcus aureus
# Assay type: functional
# Settings: not given
row,Structure (SMILES),MIC
1,COc1ccc(NC(=O)Nc2sc(-c3ccc(Cl)c(Cl)c3)cc2C(=O)O)cc1,8 mg/L
2,CCN(Cc1ccccc1)C(=O)Nc1sc(-c2ccc(Cl)c(Cl)c2)cc1C(=O)O,10 mg/L
3,COC(=O)Nc1ccc(NC(=O)Nc2sc(-c3ccc(Cl)c(Cl)c3)cc2C(=O)O)cc1,25 mg/L
4,O=C(Nc1ccccc1)Nc1sc(-c2ccc(Cl)c(Cl)c2)cc1C(=O)O,6 mg/L
5,CS(=O)(=O)Nc1ccc(NC(=O)Nc2sc(-c3ccc(Cl)c(Cl)c3)cc2C(=O)O)cc1,39 mg/L
6,O=C(Nc1ccc(F)cc1)Nc1sc(-c2ccc(Cl)c(Cl)c2)cc1C(=O)O,4 mg/L

# System: Human immunodeficiency virus 1
# Assay: Binding affinity to bodipy-labeled HIV1 reverse transcriptase p66 W24C/K287C double mutant assessed as induction of p66 thumb and finger domain open conformation at 3 uM by fluorescence spectroscopic analysis
# Settings: not given
row,Structure (SMILES),Activity
1,COc1ccc(NC(=O)Nc2sc(-c3ccc(Cl)c(Cl)c3)cc2C(=O)O)cc1,inactive
2,CCN(Cc1ccccc1)C(=O)Nc1sc(-c2ccc(Cl)c(Cl)c2)cc1C(=O)O,inactive
3,COC(=O)Nc1ccc(NC(=O)Nc2sc(-c3ccc(Cl)c(Cl)c3)cc2C(=O)O)cc1,inactive
4,O=C(Nc1ccccc1)Nc1sc(-c2ccc(Cl)c(Cl)c2)cc1C(=O)O,inactive
5,CS(=O)(=O)Nc1ccc(NC(=O)Nc2sc(-c3ccc(Cl)c(Cl)c3)cc2C(=O)O)cc1,inactive
6,O=C(Nc1ccc(F)cc1)Nc1sc(-c2ccc(Cl)c(Cl)c2)cc1C(=O)O,inactive

# System: Human immunodeficiency virus 1
# Assay: Binding affinity to bodipy-labeled HIV1 reverse transcriptase p66 W24C/K287C double mutant assessed as induction of p66 thumb and finger domain open conformation by measuring increase in bodipy fluorescence at 10 uM by stopped flow kinetic analysis
# Settings: not given
row,Structure (SMILES),Activity
1,O=C(Nc1ccccc1)Nc1sc(-c2ccc(Cl)c(Cl)c2)cc1C(=O)O,inactive

# System: not listed separately
# Assay: Ratio of IC50 for NNRTI resistant HIV1 harboring reverse transcriptase L100I/K103N/H221Y mutant infected in human TZM-bl cells to IC50 for wild type HIV1 NL4-3 infected in human TZM-bl cells
# Assay type: functional
# Settings: not given
row,Structure (SMILES),Ratio IC50
1,O=C(Nc1ccccc1)Nc1sc(-c2ccc(Cl)c(Cl)c2)cc1C(=O)O,>4
2,CS(=O)(=O)Nc1ccc(NC(=O)Nc2sc(-c3ccc(Cl)c(Cl)c3)cc2C(=O)O)cc1,>4

# Biological target: Human immunodeficiency virus type 1 reverse transcriptase (Human immunodeficiency virus 1) (UniProt Q72547)
# Assay: Inhibition of TAMRA-labeled primer/template duplex binding to HIV1 Alexa 488-labeled reverse transcriptase by FRET assay
# Settings: not given
row,Structure (SMILES),Activity
1,COc1ccc(NC(=O)Nc2sc(-c3ccc(Cl)c(Cl)c3)cc2C(=O)O)cc1,inactive
2,CCN(Cc1ccccc1)C(=O)Nc1sc(-c2ccc(Cl)c(Cl)c2)cc1C(=O)O,inactive
3,COC(=O)Nc1ccc(NC(=O)Nc2sc(-c3ccc(Cl)c(Cl)c3)cc2C(=O)O)cc1,inactive
4,O=C(Nc1ccccc1)Nc1sc(-c2ccc(Cl)c(Cl)c2)cc1C(=O)O,inactive
5,CS(=O)(=O)Nc1ccc(NC(=O)Nc2sc(-c3ccc(Cl)c(Cl)c3)cc2C(=O)O)cc1,inactive
6,O=C(Nc1ccc(F)cc1)Nc1sc(-c2ccc(Cl)c(Cl)c2)cc1C(=O)O,inactive

# System: Human immunodeficiency virus 1
# Assay: Antiviral activity against wild type HIV1 NL4-3 assessed as inhibition of viral infection in human TZM-bl cells after 48 hrs by luciferase reporter gene assay
# Assay type: functional, organism-based
# Settings: Human immunodeficiency virus 1, NL4-3, TZM-bl
row,Structure (SMILES),IC50
1,O=C(Nc1ccccc1)Nc1sc(-c2ccc(Cl)c(Cl)c2)cc1C(=O)O,5 µM
2,CS(=O)(=O)Nc1ccc(NC(=O)Nc2sc(-c3ccc(Cl)c(Cl)c3)cc2C(=O)O)cc1,5 µM

# System: not listed separately
# Assay: Cytotoxicity against HEK293 cells
# Assay type: cell-based
# Settings: human, read-out: LD50 (the source's name)
row,Structure (SMILES),CC50
1,COc1ccc(NC(=O)Nc2sc(-c3ccc(Cl)c(Cl)c3)cc2C(=O)O)cc1,80 µM
2,CCN(Cc1ccccc1)C(=O)Nc1sc(-c2ccc(Cl)c(Cl)c2)cc1C(=O)O,58 µM
3,COC(=O)Nc1ccc(NC(=O)Nc2sc(-c3ccc(Cl)c(Cl)c3)cc2C(=O)O)cc1,86 µM
4,O=C(Nc1ccccc1)Nc1sc(-c2ccc(Cl)c(Cl)c2)cc1C(=O)O,61 µM
5,CS(=O)(=O)Nc1ccc(NC(=O)Nc2sc(-c3ccc(Cl)c(Cl)c3)cc2C(=O)O)cc1,> 100 µM
6,O=C(Nc1ccc(F)cc1)Nc1sc(-c2ccc(Cl)c(Cl)c2)cc1C(=O)O,68 µM

# Biological target: Human immunodeficiency virus type 1 reverse transcriptase (Human immunodeficiency virus 1, UniProt Q72547)
# Assay: Inhibition of HIV1 reverse transcriptase using T19-Cy5 labeled 23-mer DNA/T2-TAMRA labeled 63-mer DNA as primer/template assessed as inhibition of dNTP incorporation into primer/template
# Settings: not given
row,Structure (SMILES),IC50
1,COc1ccc(NC(=O)Nc2sc(-c3ccc(Cl)c(Cl)c3)cc2C(=O)O)cc1,0.8 µM
2,CCN(Cc1ccccc1)C(=O)Nc1sc(-c2ccc(Cl)c(Cl)c2)cc1C(=O)O,0.9 µM
3,COC(=O)Nc1ccc(NC(=O)Nc2sc(-c3ccc(Cl)c(Cl)c3)cc2C(=O)O)cc1,0.3 µM
4,O=C(Nc1ccccc1)Nc1sc(-c2ccc(Cl)c(Cl)c2)cc1C(=O)O,1.2 µM
5,CS(=O)(=O)Nc1ccc(NC(=O)Nc2sc(-c3ccc(Cl)c(Cl)c3)cc2C(=O)O)cc1,0.1 µM
6,O=C(Nc1ccc(F)cc1)Nc1sc(-c2ccc(Cl)c(Cl)c2)cc1C(=O)O,0.7 µM
